From patent US20240402081A1, “MOLECULAR DIFFUSION EVALUATION METHOD AND SYSTEM” (Nippon Telegraph and Telephone Corporation, priority 2021, published 2024) come the findings set out here.

A short description of this data set: SPR measurement of tracer molecule diffusion in a hydrogel layer (channel chip). The settings on record: aqueous solutions of glucose and ethanol as tracer molecules; FIG. 5. In kind it is physicochemical. How it is done: Hereinafter, a molecular diffusion evaluation method according to an embodiment of the present invention will be described with reference to FIG. 1. First, in step S101, a solution in which a target molecule (tracer molecule) is dissolved is introduced into a channel. The channel is formed on, for example, a measurement chip used by being attached to a surface plasmon resonance (SPR) measurement system. The channel includes a measurement area by surface plasmon resonance and a hydrogel layer provided in the middle of the measurement area. […] In a process where the solution in which the target molecule is dissolved passes through the portion where the hydrogel layer is not formed and the portion where the hydrogel layer is formed, the refractive index (SPR angle) at each portion is measured in time series, and the refractive index change (time change in SPR angle) at each portion is acquired. The refractive index change measured in the process of passing through the portion where the hydrogel layer is not formed is the first measurement result. In addition, the refractive index change measured in the process of passing through the portion where the hydrogel layer is formed is the second measurement result. Next, in step S103, the diffusion rate of molecules in the hydrogel is evaluated by comparing the first measurement result with the second measurement result (evaluation step). […]
In general terms: In SPR one partner is held on a chip, and binding of the other changes the refractive index at the surface.

Structures are written as SMILES.

As for `CCO` [ethanol], the “diffusion rate in the acrylamide gel, comparison of scaled SPR angle change curves” value is on record as “different”.
